Source: US8686037B2, “Use of piracetam for treating diabetic nephropathy” (Uniwersytet Jagiellonski, priority 2009, dated 2014)

Key:
albumin [1] = biological target: T1, albumin (Homo sapiens, UniProt P02768); test: Measurement of albumin glycation using spectrofluorimetric method (Ex/Em 370/440 nm); type: biochemical; details: 5 mM; albumin incubated with glucose 0.5 M for 4 weeks
Method: Glycation of protein in vitro was carried out according to following scheme: • 50 mg of protein (albumin, myoglobin) was dissolved in 1 ml 0.01M PBS (pH 7.4), containing D-glucose (0.1; 0.3; 0.5; 1M) and 5 mM toluene (as a bacteriostatic compound). The examined drug or aminoguanidine hydrochloride were added to samples at final concentrations from 0.1 mM to 5 mM. Samples were incubated at 37° C., in dark, for a specified period of time (1, 2, 3 and 4 weeks). Then, the protein was concentrated by ultrafiltration (30 min at 4000×g, 16° C.) with Amicon 50 cartridges (Millipore) with cut-off of 50 kDa (in case of albumin) or Amicon 10 cartridges with cut-off of 10 kDa (in case of myoglobin). The concentrated protein samples were dialyzed for 24 hrs, against distilled water, using dialysis membranes: Spectra Por (cut-off of 50 kDa for albumin and cut-off of 12-14 kDa for myoglobin). Then the samples were lyophilized overnight. • Control samples were prepared as above except of addition of glucose (control I) or drugs (control II). Sugar residues are characterized by fluorescence—Ex/Em 370/440 nm The action of drug is expressed by a suppression of the intensity of fluorescence. Lyophylized protein samples were dissolved in 0.01M PBS (pH 7.4), at concentration 0.5 mg protein/1 ml of buffer. […] Fluorescence intensity was measured at 440 nm emission upon excitation of 370 nm.

albumin [2] = biological target: T1, albumin; test: Measurement of glycation by mass spectrometry (gain of molecular weight of albumin incubated with glucose); type: biochemical
Method: Glycation of protein in vitro was carried out according to following scheme: • 50 mg of protein (albumin, myoglobin) was dissolved in 1 ml 0.01M PBS (pH 7.4), containing D-glucose (0.1; 0.3; 0.5; 1M) and 5 mM toluene (as a bacteriostatic compound). The examined drug or aminoguanidine hydrochloride were added to samples at final concentrations from 0.1 mM to 5 mM. Samples were incubated at 37° C., in dark, for a specified period of time (1, 2, 3 and 4 weeks). Then, the protein was concentrated by ultrafiltration (30 min at 4000×g, 16° C.) with Amicon 50 cartridges (Millipore) with cut-off of 50 kDa (in case of albumin) or Amicon 10 cartridges with cut-off of 10 kDa (in case of myoglobin). The concentrated protein samples were dialyzed for 24 hrs, against distilled water, using dialysis membranes: Spectra Por (cut-off of 50 kDa for albumin and cut-off of 12-14 kDa for myoglobin). Then the samples were lyophilized overnight. • Control samples were prepared as above except of addition of glucose (control I) or drugs (control II). The method is based on a measurement of protein molecular weight (albumin, myoglobin), which is increased in proportion to the number of bound sugar moieties. […] Based on obtained MS spectra, average protein molecular weight was calculated using BioWorks 1.0 software (Finnigan, San Jose, USA).

[3] = Glycaemia in streptozotocin-induced diabetes model; type: in vivo, Sprague-Dawley rats; details: rats injected with STZ; 354±40 mg/kg/day in drinking water, 8 weeks
Method: (§1) All experimental studies using animals were approved by an Ethical Committee at the Jagiellonian University. Diabetes model was established by the single, intraperitoneal administration of streptozotocin (STZ, 75 mg/kg in citrate buffer, pH 4.5) to three-month Sprague-Dawley rats. In order to maintain glycaemia between 350 and 450 mg/dL, animals were treated twice a week by insulin (neutral protamine Hagedorn, NPH, 2-3 U/300 g of body weight).
(§2) The rats were divided into three groups (each one of n=4 animals): “control” group—animals injected with citrate buffer only (sham animals), “diabetes” group—STZ treated animals and “STZ+drug” group—STZ-rats treated with examined drug (354±40 mg/kg/day in drinking water). The experiment lasted 8 weeks. Animals were anesthetized and killed, and both the tissue samples (kidneys, heart, lungs, brain) as well as blood samples were harvested. The presence of AGEs was evaluated by immunohistochemistry, with use of specific antibodies (Abcam, USA).

AGEs = test: Immunohistochemistry for AGEs in renal glomeruli, streptozotocin-induced diabetes model; type: in vivo, Sprague-Dawley rats; details: STZ rats; 354±40 mg/kg/day in drinking water, 8 weeks; kidney
Method: as §1, §2

T1 sequence (P02768 25-609, species assumed): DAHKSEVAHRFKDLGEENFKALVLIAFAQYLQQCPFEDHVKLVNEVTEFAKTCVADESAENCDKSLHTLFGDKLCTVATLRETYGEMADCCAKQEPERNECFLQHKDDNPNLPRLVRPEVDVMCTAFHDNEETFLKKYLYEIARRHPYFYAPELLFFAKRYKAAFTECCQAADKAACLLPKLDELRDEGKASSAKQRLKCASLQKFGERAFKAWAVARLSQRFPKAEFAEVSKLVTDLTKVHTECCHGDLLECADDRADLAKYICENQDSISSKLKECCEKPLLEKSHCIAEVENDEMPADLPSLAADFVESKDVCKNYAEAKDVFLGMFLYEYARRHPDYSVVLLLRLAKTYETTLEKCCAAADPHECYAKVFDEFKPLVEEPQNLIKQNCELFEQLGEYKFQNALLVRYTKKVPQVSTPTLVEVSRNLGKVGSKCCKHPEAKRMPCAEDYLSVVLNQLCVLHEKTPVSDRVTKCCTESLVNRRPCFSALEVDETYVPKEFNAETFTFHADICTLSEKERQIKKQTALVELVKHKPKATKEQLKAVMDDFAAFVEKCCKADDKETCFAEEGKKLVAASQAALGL

Structure (SMILES) | inhibition of glycation (spectrofluorimetric method) (albumin [1]) [%] | inhibition of protein glycation (mass spectrometry method) (albumin [2]; 5 mM, albumin 50 mg/ml, glucose 0.5 M, 4 weeks, compared to mass of albumin incubated with glucose alone) [%] | addition of glucose moieties to albumin (albumin [2]; in vitro model, FIG. 1, strength comparable to aminoguanidine) | glycaemia [3] [mg/dL] | influence on glycaemia [3] | number of AGE-positive glomeruli (AGEs) | severity of changes in glomeruli (AGEs)
Cl.N=C(N)NN [aminoguanidine, aminoguanidine hydrochloride] | 67 |  |  |  |  |  | 
NC(=O)CN1CCCC1=O [tested compound, 2-(2-oxo-1-pyrrolidin-1-yl) acetamide] | 45 | 33 | inhibited dose-dependently | 429 ± 65.0 | did not influence glycaemia | significantly reduced | significantly reduced
